The source made the active and inactive calls. The rule behind the calls is not given here.
Columns and labels:
[1] = molecular target: T1, Prothrombin (Homo sapiens, UniProt P00734); assay: Inhibition of factor 2a
[2] = molecular target: Trypsin (Homo sapiens, UniProt P07477+P07478+P35030); assay: Inhibition of human trypsin; format: protein assay
[3] = molecular target: T2, Coagulation factor XI (Homo sapiens, UniProt P03951); assay: Inhibition of factor 11a at 300 uM
[4] = molecular target: T1, Prothrombin; assay: Inhibition of factor 2a at 300 uM
[5] = molecular target: T3, Vitamin K-dependent protein C (Homo sapiens, UniProt P04070); assay: Inhibition of activated protein C at 300 uM
[6] = molecular target: T3, Vitamin K-dependent protein C; assay: Inhibition of activated protein C
[7] = molecular target: T2, Coagulation factor XI; assay: Inhibition of factor 11a
[8] = molecular target: Coagulation factor IX (Homo sapiens) (UniProt P00740); assay: Inhibition of factor 9a at 300 uM
Sequence of Coagulation factor IX (Homo sapiens) (P00740 47-191 limits assumed): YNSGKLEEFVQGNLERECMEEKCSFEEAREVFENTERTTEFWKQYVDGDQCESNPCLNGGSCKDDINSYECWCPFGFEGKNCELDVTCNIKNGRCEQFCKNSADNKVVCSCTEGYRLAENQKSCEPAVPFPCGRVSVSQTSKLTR
Sequence of Coagulation factor IX (Homo sapiens) (P00740 227-461 limits assumed): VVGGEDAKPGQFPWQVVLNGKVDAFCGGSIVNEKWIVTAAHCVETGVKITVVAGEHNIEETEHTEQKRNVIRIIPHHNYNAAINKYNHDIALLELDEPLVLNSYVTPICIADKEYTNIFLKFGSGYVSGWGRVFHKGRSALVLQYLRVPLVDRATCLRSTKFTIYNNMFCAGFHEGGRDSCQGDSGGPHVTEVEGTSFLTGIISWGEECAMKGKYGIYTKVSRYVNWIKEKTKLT

T3 sequence (P04070 43-197 limits assumed): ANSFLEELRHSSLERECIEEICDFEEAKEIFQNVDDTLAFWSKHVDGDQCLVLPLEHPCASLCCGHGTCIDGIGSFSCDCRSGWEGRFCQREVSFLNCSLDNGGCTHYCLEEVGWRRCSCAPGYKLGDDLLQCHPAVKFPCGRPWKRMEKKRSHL
T3 sequence (P04070 212-461 limits assumed): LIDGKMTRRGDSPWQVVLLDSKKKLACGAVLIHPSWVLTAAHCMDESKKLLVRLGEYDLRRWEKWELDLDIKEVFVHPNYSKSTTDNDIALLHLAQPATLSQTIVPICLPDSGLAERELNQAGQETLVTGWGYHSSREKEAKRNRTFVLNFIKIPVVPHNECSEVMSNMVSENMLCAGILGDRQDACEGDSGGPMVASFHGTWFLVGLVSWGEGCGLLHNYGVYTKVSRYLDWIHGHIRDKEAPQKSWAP
T2 sequence (P03951 19-387 limits assumed): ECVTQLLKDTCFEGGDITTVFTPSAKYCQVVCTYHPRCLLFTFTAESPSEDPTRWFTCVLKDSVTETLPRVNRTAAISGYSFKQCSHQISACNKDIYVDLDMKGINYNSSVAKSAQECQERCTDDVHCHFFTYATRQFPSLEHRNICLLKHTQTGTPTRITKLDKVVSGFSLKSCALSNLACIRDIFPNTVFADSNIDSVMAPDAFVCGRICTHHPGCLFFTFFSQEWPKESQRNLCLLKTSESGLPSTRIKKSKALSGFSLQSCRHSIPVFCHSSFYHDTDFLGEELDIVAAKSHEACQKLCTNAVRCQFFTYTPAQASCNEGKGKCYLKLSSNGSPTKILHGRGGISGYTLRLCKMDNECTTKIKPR
T2 sequence (P03951 388-625 limits assumed): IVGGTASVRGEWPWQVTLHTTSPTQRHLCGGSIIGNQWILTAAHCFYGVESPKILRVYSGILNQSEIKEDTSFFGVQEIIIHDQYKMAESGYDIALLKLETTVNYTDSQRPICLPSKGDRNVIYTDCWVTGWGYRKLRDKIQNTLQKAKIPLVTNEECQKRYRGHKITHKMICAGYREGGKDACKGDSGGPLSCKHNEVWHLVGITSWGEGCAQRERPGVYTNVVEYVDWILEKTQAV

Row | IC50 [2] [µM] | Kic [2] [µM] | inhibition [4] | inhibition [5] | IC50 [6] [µM] | Kic [6] [µM] | IC50 [7] [µM] | Kic [7] [µM] | IC50 [1] [µM] | Compound | other results
1 |  |  |  |  |  |  |  |  |  | O=C1Cn2c(Cl)cnc(c2=O)N[C@@H](Cc2ccccc2)CNCCCNCCc2ccc(Cl)cc2CN1 | Ki [1]: 0.09 nM
2 | 1.16 | 0.142 | inactive | inactive |  |  |  |  |  | C=CCCS(=O)(=O)N[C@@H](C(=O)N[C@@H](CC(C)C)C(=O)NCc1c(CC=C)[nH]c2ccc(Cl)cc12)C1CCCCC1 | inhibition [3]: inactive
3 | 2.17 | 0.264 | inactive |  | 284 | 227 | 103 | 51.6 |  | C=CCCC(=O)N[C@@H](C(=O)N[C@@H](CC(C)C)C(=O)NCc1c(CC=C)[nH]c2ccc(Cl)cc12)C1CCCCC1 | 
4 | 0.26 | 0.031 | inactive |  | 145 | 116 | 136 |  |  | CC(C)C[C@@H]1NC(=O)[C@@H](C2CCCCC2)NC(=O)[C@H](c2ccccc2)C/C=C/Cc2[nH]c3ccc(Cl)cc3c2CNC1=O | 
5 | 2.43 | 0.296 | inactive | inactive |  |  | 176 | 87.9 |  | CC(C)C[C@@H]1NC(=O)[C@@H](C2CCCCC2)NS(=O)(=O)CCCCCc2[nH]c3ccc(Cl)cc3c2CNC1=O | 
6 |  |  |  |  |  |  |  |  | 0.0015 | NC(N)=NCCC[C@@H]1NC(=O)[C@@H]2CCCN2C(=O)[C@@H](NC=O)CNC(=O)/C=C/[C@H](Cc2ccc(O)cc2)NC(=O)[C@@H](Cc2ccccc2)NC(=O)C1=O [CYCLOTHEONAMIDE A] | 
7 | 2.69 | 0.328 |  | inactive |  |  | 768 | 384 | 67.9 | CC(C)C[C@@H]1NC(=O)[C@@H](C2CCCCC2)NS(=O)(=O)CC/C=C/Cc2[nH]c3ccc(Cl)cc3c2CNC1=O | Kic [1]: 10.6 µM
8 | 10 | 1.22 |  |  | 395 | 316 |  |  | 10.6 | CC(C)C[C@@H]1NC(=O)[C@@H](C2CCCCC2)NC(=O)CCCCCc2[nH]c3ccc(Cl)cc3c2CNC1=O | Kic [1]: 1.7 µM; inhibition [3]: inactive
9 | 0.16 | 0.02 | inactive |  | 103 | 82.8 | 146 | 73 |  | C=CCc1[nH]c2ccc(Cl)cc2c1CNC(=O)[C@H](CC(C)C)NC(=O)[C@H](NC(=O)[C@@H](CC=C)c1ccccc1)C1CCCCC1 | 
10 |  |  |  |  |  |  |  |  |  | CC(C)C[C@@H]1NC(=O)[C@@H](C2CCCCC2)NC(=O)CC/C=C/Cc2[nH]c3ccc(Cl)cc3c2CNC1=O | inhibition [8]: inactive
11 | 2.31 | 0.281 | inactive | inactive |  |  |  |  |  | CC(C)C[C@@H]1NC(=O)[C@@H](C2CCCCC2)NC(=O)[C@H](c2ccccc2)CCCCc2[nH]c3ccc(Cl)cc3c2CNC1=O | inhibition [3]: inactive
12 |  |  |  |  |  |  |  |  | 8.7 | CCCCCC(=O)NCC(=O)N[C@H](C(=O)N[C@@H]1C(=O)N[C@@H](CCC(N)=O)C(=O)N[C@H]2CC[C@@H](O)N(C2=O)[C@@H](Cc2ccccc2)C(=O)N(C)[C@@H](Cc2c[nH]c3ccccc23)C(=O)N[C@@H](C(C)C)C(=O)O[C@@H]1C)[C@@H](C)O [MICROPEPTIN 103] | 
13 |  |  |  |  |  |  |  |  | 0.0057 | CO[C@H](COS(=O)(=O)[O-])C(=O)N[C@@H](C(=O)N1[C@H](C(=O)NCCC2=CC[N+](=C(N)N)C2)C[C@@H]2C[C@H](O)[C@@H](O)C[C@@H]21)[C@H](Cl)C(C)C [CHLORODYSINOSIN A] | 

Reference: ChEMBL document CHEMBL1287717, “Design and synthesis of macrocyclic indoles targeting blood coagulation cascade Factor XIa” (Bioorg Med Chem Lett, 2010)
